Where two headings read alike, the source gives them in different places.
Columns and labels:
Assay type in all cases: cell-based
AR-LBD and SRC1 = target: T1, AR-LBD and SRC1 (Homo sapiens, UniProt P10275); assay: AR-SRC1 mammalian 2-hybrid assay; conditions: HEK 293 cells; read-out: Inhibition DHT-induced AR-SRC1 mammalian 2 hybrid assay IC50
T1 construct: AR-LBD amino acids 658-919 expressed as a fusion protein with Gal4-DBD; expressed in transfected cells; host or cells: HEK 293, transient co-transfection
T1 sequence (P10275 658-919): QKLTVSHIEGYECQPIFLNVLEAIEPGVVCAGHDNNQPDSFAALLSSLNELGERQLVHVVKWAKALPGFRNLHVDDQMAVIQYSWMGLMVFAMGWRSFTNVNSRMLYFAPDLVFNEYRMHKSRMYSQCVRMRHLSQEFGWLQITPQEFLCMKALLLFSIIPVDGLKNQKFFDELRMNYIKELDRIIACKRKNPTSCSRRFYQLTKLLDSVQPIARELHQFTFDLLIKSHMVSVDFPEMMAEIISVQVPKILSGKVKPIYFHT
Text: TIF2 and SRC1 Mammalian 2-Hybrid Assays: The 5×GAL4-TATA-luciferase reporter plasmid was a gift from Dr. Richard Maurer from the Oregon Health and Science University (Gonzalez et al., Cell 1989, 59:675-80), and constructs pGAL4-hAR-658-919 (AR-LBD amino acids 658-919 expressed as a fusion protein with Gal4-DBD) (Askew et al., J Biol Chem 2007, 282:25801-16), pVP16-SRC1 (full-length SRC1 expressed as a fusion with VP16 activation domain) (He et al., J Biol Chem 1999, 274:37219-25) and pVP16-Empty vectors were kindly provided to us by Dr. Elizabeth Wilson, from UNC Chapel Hill. pVP16-TIF2 was generated as described previously (Fancher et al., Assay Drug Dev Technol. 2019, 17:364-386). HEK 293 cells were transiently co-transfected with 5 ng of pGal4-AR-LBD, 10 ng of either pVP16-TIF2 or pVP16-SRC1, and 20 ng of the 5×Gal4-TATA-Luc reporter as described previously (Ibid.). HEK 293 cells were bulk co-transfected with the three plasmids that had been individually incubated with FuGENE® 6 transfection agent (Fugent LLC, Middleton, WI) at a 3:1 ratio for 25 min at room temperature (RT) in serum free media (SFM) and then combined with HEK 293 cells that were suspended in DMEM (Cellgro10013CV) with 2 mM L-glutamine (Invitrogen) that was supplemented with 10% fetal bovine serum, and 5,000 cells in a volume of 40 μL were seeded into the wells of white opaque 384-well assay plates (Greiner Bio-one, #781080) and cultured overnight at 37° C., 5% CO2, and 95% humidity. […] 25 μL of BrightGlo® reagent (Promega, Madison, WI) was added to the plate and the relative luminescence units (RLUs) were captured on a SpectraMax® M5e microtiter plate reader (Molecular Devices, LLC, San Jose, CA).

[1] = system: DHT-induced full length AR PSA promoter-driven transcription in C4-2 CRPC cells; assay: PSA-6.1 luciferase reporter assay in C4-2 CRPC cells
Protocol: Prostate Specific Antigen (PSA)-6.1 Luciferase Reporter Assay in the C4-2 CRPC Cell Line: The PSA-6.1-Luc luciferase reporter plasmid was provided by Dr. Zhou Wang in the Urology department of the University of Pittsburgh Cancer Institute. The PSA-6.1-Luc reporter is controlled by a fragment of the PSA promoter that contains at least three AREs. The PSA-6.1-Luc plasmid (12 ng/well) was combined with FuGENE® 6 transfection agent at a ratio 6:1 in SFM and incubated for 25 minutes at room temperature before being combined with C4-2 cells suspended in RPMI 1640 media containing 1% penicillin-streptomycin, 1% L-glutamine, and 10% FBS. Transfected cells were then seeded into white opaque 384-well assay plates (Greiner Bio-one, #781080) at 6,000 cells per well in a volume of 30 μL and incubated in 5% CO2, 37° C., and 95% humidity for 24 h.

[2] = system: AR-V7-mediated PSA promoter-driven transcription in PC3-AR-V7-GFP cells; assay: PSA6.1 promoter driven luciferase reporter assay in PC3-AR-V7-GFP cells
Protocol: PSA6.1 Promoter Driven Luciferase Reporter Assay in PC3-AR-V7-GFP Cells: PC3-AR-V7-GFP cells were bulk transfected with a mixture of FuGENE® HD transfection agent and the PSA-6.1-Luc reporter plasmid (20 ng/well) combined at a 3:1 (μL:μg) ratio in Opti-MEM™ medium (Gibco, Gaithersburg, MD) that had been incubated for 25 min at RT before being added to PC3-AR-V7-GFP cells that were suspended in RPMI 1640 (Gibco) media containing 1% L-glutamine (Invitrogen), and 10% fetal bovine serum (Gemini Bio-products). Bulk transfected PC3-AR-V7-GFP cells were seeded into white opaque 384-well assay plates (Greiner Bio-one, #781080) at 3,000 cells per well in a volume of 40 μL and incubated at 5% CO2, 37° C., and 95% humidity for 24 h. After 24 h, 5 μL of compounds were transferred to assay wells and the plates were returned to the incubator for an additional 24 h before 25 μL of BrightGlo® luciferase reagent (Promega) was added to the wells and the RLU's were captured on a SpectraMax® M5e plate reader (Molecular Devices LLC) as described previously (Fancher et al., Assay Drug Dev Technol. 2019, 17:364-386).

[3] = PC3-AR-V7-GFP cells, constitutive, read-out: Inhibition AR-V7 PSA-reporter IC50
[4] = C4-2 CRPC cells, read-out: Inhibition of DHT-induced full length AR PSA reporter IC50
[5] = 24 h, 24 h exposure, read-out: IC50 in PSA-Luc AR-V7 reporter assay (potency range in words)
[6] = C4-2, 24 h, 24 h exposure, read-out: IC50 in PSA-Luc reporter assay, C4-2 cells (potency range in words)
[7] = b132, read-out: IC50, DHT-induced AR-mediated PSA promoter-driven transcription in C4-2 CRPC cells

IC50 [1, 4]	IC50 [2, 5]	IC50 [1, 6]	SMILES	also measured
–	–	–	Cc1ccccc1-c1cc(O)c2c(c1)CN(c1nc(C(N)=O)cs1)CCO2 [Compound S1-1]	IC50 (AR-LBD and SRC1): 0.38 µM; IC50 ([1]; C4-2 CRPC cells, listed as 1, read-out: Inhibition of DHT-induced full length AR PSA reporter IC50): 5.27 µM
< 37 µM	–	–	Cc1nc(N)cc(N2CCOc3c(O)cc(-c4ccccc4C)cc3C2)n1 [Compound S1-2]	IC50 [2, 3]: 12.2 µM
< 37 µM	–	–	Cc1ccccc1-c1cc(O)c2c(c1)CN(c1nccs1)CCO2 [Compound S1-3]	–
< 37 µM	–	–	Cc1ccccc1-c1cc(O)c2c(c1)CN(c1cc(N)ncn1)CCO2 [Compound S1-4]	–
< 37 µM	–	–	COc1cc(-c2ccc(C)s2)cc2c1OCCN(c1nc(C(N)=O)cs1)C2 [Compound S1-5]	–
–	–	–	Cc1nsc(NC(=O)N2CCC(Sc3ccccc3C)CC2)n1 [Compound S2-6]	IC50 (AR-LBD and SRC1): 0.29 µM
4.21 µM	10 to 100 µM	1 to 10 µM	Cc1c(-c2ccccc2F)[nH]c2ccc(CNC(=O)CCc3cn[nH]c3)cc12 [Compound S3-11]	IC50 (AR-LBD and SRC1): 0.6 µM; IC50 [2, 3]: 3.13 µM
–	1 to 10 µM	1 to 10 µM	Cc1c(-c2ccccc2F)[nH]c2ccc(CNC(=O)CCc3cnccn3)cc12 [Compound S3-12]	–
–	10 to 100 µM	–	CC(=O)NCCC(=O)NCc1ccc2[nH]c(-c3ccccc3F)c(C)c2c1 [Compound S3-13]	IC50 [1, 7]: 40 to 59 µM
–	10 to 100 µM	–	Cc1c(-c2ccccc2F)[nH]c2ccc(CNC(=O)c3ccc(CO)o3)cc12 [Compound S3-14]	–
–	1 to 10 µM	1 to 10 µM	Cc1c(-c2ccc(F)cc2)[nH]c2ccc(CNC(=O)c3ccc(CO)o3)cc12 [Compound S3-15]	–
–	10 to 100 µM	1 to 10 µM	Cc1cccc2c(-c3ccc(O)c(F)c3)c[nH]c12 [Compound S3-17]	–
–	–	10 to 100 µM	CNC(=O)c1ccc(-c2c[nH]c3c(C)cccc23)cc1 [Compound S3-21]	IC50 [2, 3]: > 100 µM; IC50 [1, 7]: 40 to 59 µM

— patent publication US20260083751A1, “ALLOSTERIC MODULATORS OF ANDROGEN RECEPTOR COACTIVATOR RECRUITMENT FOR CRPC THERAPY” (University of Pittsburgh – Of the Commonwealth System of …, priority 2022, published 2026)
